According to patent US5436253A, “Pyridonecarboxylic acid derivatives and mycotic infections” (Daiichi Pharmaceutical Co., Ltd., priority 1993, dated 1995):

Assays:
Set-up in all cases: MIC Alone: unit not given beside the values
Conditions in all cases: antimycotic agent alone
C. albicans = system: C. albicans
Cryptococcus = system: Cryptococcus
Blastomyces dermatitidis = system: Blastomyces dermatitidis

`C[C@@H]1[C@H](O)[C@@H](C)/C=C/C=C/C=C/C=C/C=C/C=C/C=C/[C@H](O[C@@H]2O[C@H](C)[C@@H](O)[C@H](N)[C@@H]2O)C[C@@H]2O[C@](O)(C[C@@H](O)C[C@@H](O)[C@H](O)CC[C@@H](O)C[C@@H](O)CC(=O)O[C@H]1C)C[C@H](O)[C@H]2C(=O)O` [AMB, amphotericin B] was tested, and the “MLC Alone” value (C. albicans) was greater than 4.62, the “MIC Alone” value (Cryptococcus) was 0.29 and the “MIC Alone” value (Blastomyces dermatitidis) was 0.29.

`OC(Cn1cncn1)(Cn1cncn1)c1ccc(F)cc1F` [FLU, fluconazole] was tested, and the “MIC Alone” value (C. albicans) was 2.5, the “MIC Alone” value (Cryptococcus) was 10 and the “MIC Alone” value (Blastomyces dermatitidis) was 10.

For `Clc1ccc(COC(Cn2ccnc2)c2ccc(Cl)cc2Cl)c(Cl)c1` (stereo not drawn) [MON, miconazole], the “MIC Alone” value (C. albicans) was 1.25, the “MLC Alone” value (Cryptococcus) was 5 and the “MLC Alone” value (Blastomyces dermatitidis) was 5.
